Data reported in patent EP4000613A1, “PHARMACEUTICAL COMBINATIONS COMPRISING A PEPTIDE CXCR4 INHIBITOR AND A TAXANE FOR TREATING CANCER” (Polyphor AG, priority 2020, dated 2022).

Experiments:
[1] = system: breast cancer PDX Ma15169; test: Tumor growth of breast cancer PDX Ma15169 in humanized NOG-EXL mice; format: in vivo; conditions: for rating according to RECIST criteria: based on T/C at last day of the study (day 183); for T/C value: last day of the study (day 183), tumor volume treated-to-control
Experimental: The study was designed to determine the response of the breast cancer PDX Ma15169 to treatment with Paclitaxel single agent, Balixafortide single agent and the combination of both in humanized NOG-EXL mice. Humanized NOG-EXL mice bearing the breast cancer PDX Ma15169 were treated with Paclitaxel and Balixafortide according to Table 1. Ma15169 is a patient derived xenograft (PDX) that was from a patient with an invasive ductal carcinoma (ypT1a ypNla R0 G3 L1 V1). The patient tumour was ER/PR as well as Her-2 negative. The tumour material was expanded in 9 donor mice (NOG, Taconic; https://www.taconic.com/mouse-model/ciea-nog-mouse) and fragments of about 10mm3 were each implanted subcutaneously into the flank of 50 humanized NOG-EXL mice; at this time, the passage number of Ma15169 was #4. Table 1: Course of events during the study
Female NOG-EXL mice with an age of about 4 weeks were used for the constitution of human immune cells. 24 hours before CD34+ cell inoculation mice were irradiated with 1Gy. Human CD34+ cells were isolated from fresh cord blood within the laboratories of EPO (Experimental Pharmacology & Oncology Berlin-Buch GmbH, Berlin-Buch, Germany) and preserved in liquid nitrogen until use. For the study MV16883 a pool of 5 different donors (CB AG 101, CB AG 97, CB KR 104, CB AG 106, CB AG 107) prepared. After thawing the cells were washed with PBS, pooled and washed again followed by Trypan blue staining and cell counting using Neubauer chamber. A total of 5x10^4 vital cells were resuspended in 200µl PBS and injected intravenously into the tail vain of all mice.
Determination of human immune cells by FACS was performed at days 46, 84 and 115 after cell inoculation (leucocytes CD45+, B cells CD19+, T cells CD3+, NK cells CD56+/CD16+ and monocytes CD14+; Human Immunophenotyping 8-color-Kit (Miltenyi)). The mice were weighed weekly and monitored for general health two times weekly.
The PDX Ma15169 is maintained by EPO (Experimental Pharmacology & Oncology Berlin-Buch GmbH, Berlin-Buch, Germany) as in vivo passage; the passage number for this study was #4. Donor mice (female NOG; Taconic) with tumors of about 1cm3 were used for the preparation of this study MV16883.
After removal of the tumor tissue from donor mice, the tumors were cut into fragments (2-3 mm diameter - approximately 10mm3) and placed in cooled RPMI 1640 culture medium until s.c. implantation within 30 minutes. The humanized NOG-EXL mice were anaesthetized with Etomidate and received a small incision in the skin of the left flank. The tumor fragments (one fragment/mouse) were implanted with tweezers and the incision closed with a suture clip (#310417, Covetrus GmbH). The clips were removed after seven days and mice controlled two times weekly by means of palpation. The implantation of tumor fragments was performed 122 days after the inoculation of CD34+ cells.
Tumor bearing mice were stratified into 4 treatment groups according to their tumor volumes at day 154 post CD34+ cell inoculation (32 days after tumor implantation). […] During stratification the animals were individually marked by earmarks.
Paclitaxel (Taxomedac™ comprising paclictaxel, citric acid, ethanol and PEG (30-50) castor oil) was given i.v. at a dose of 10 mg/kg twice weekly. Balixafortide was given s.c. at a dose of 20 mg/kg once daily for the first 5 days and twice daily for 5 days followed by treatment breaks of 2 days until the end of treatment period (Fig. 1). Total treatment duration was 29 days. […]

[2] = system: human CXCR4 receptor; test: In vitro receptor binding studies (CXCR4)
From the text: (§1) In a particular preferred embodiment the peptidic CXCR4 inhibitor is cyclo(-Tyr-His-Ala-Cys-Ser-Ala-^DPro-Dab-Arg-Tyr-Cys-Tyr-Gln-Lys-^DPro-Pro-) having a disulfide bond between Cys^4 and Cys^11, or pharmaceutically acceptable sals thereof. Cyclo(-Tyr-His-Ala-Cys-Ser-Ala-^DPro-Dab-Arg-Tyr-Cys-Tyr-Gln-Lys-^DPro-Pro-) having a disulfide bond between Cys^4 and Cys^11 is also referred as POL6326 herein or balixafortide. POL6326 is a cyclic synthetic peptide consisting of 16 amino acids and an antagonist of the highly conserved chemokine receptor CXCR4.

[3] = system: other potential target receptors; test: In vitro receptor binding studies (other receptors)
From the text: as §1

Structure (SMILES) | rating according to RECIST criteria [1] | optimum T/C value ([1]; day 168, Balixafortide 20 mg/kg s.c., p > 0.05) [%] | T/C value ([1]; Balixafortide 20 mg/kg s.c.) [%] | affinity for the human CXCR4 receptor [2] | binding to other potential target receptors [3] | T/C value ([1]; Paclitaxel 10 mg/kg i.v. twice weekly, Balixafortide 20 mg/kg s.c.) [%]
C[C@@H]1NC(=O)[C@H](Cc2c[nH]cn2)NC(=O)[C@H](Cc2ccc(O)cc2)NC(=O)[C@@H]2CCCN2C(=O)[C@H]2CCCN2C(=O)[C@H](CCCCN)NC(=O)[C@H](CCC(N)=O)NC(=O)[C@H](Cc2ccc(O)cc2)NC(=O)[C@@H]2CSSC[C@H](NC1=O)C(=O)N[C@@H](CO)C(=O)N[C@@H](C)C(=O)N1CCC[C@@H]1C(=O)N[C@@H](CCN)C(=O)N[C@@H](CCCNC(=N)N)C(=O)N[C@@H](Cc1ccc(O)cc1)C(=O)N2 [Balixafortide, cyclo(-Tyr-His-Ala-Cys-Ser-Ala-^DPro-Dab-Arg-Tyr-Cys-Tyr-Gln-Lys-^DPro-Pro-) having a disulfide bond between Cys^4 and Cys^11] | progressive disease | 79 | 107 | significant affinity | general lack of significant binding | –
CC(=O)O[C@H]1C(=O)[C@@]2(C)[C@H]([C@H](OC(=O)c3ccccc3)[C@]3(O)C[C@H](OC(=O)[C@H](O)[C@@H](NC(=O)c4ccccc4)c4ccccc4)C(C)=C1C3(C)C)[C@]1(OC(C)=O)CO[C@@H]1C[C@@H]2O [Paclitaxel] | stable disease | – | – | – | – | 42
